Experimental data from patent publication US20160022731A1, “[…] NITRIC OXIDE FOR TREATING RESPIRATORY DISEASES” (Advanced Inhalation Therapies (AIT) Ltd., priority 2013, published 2016).
Read-outs that look alike come from different tables or passages of the source.

Tests used:
[1] = Phase I open label safety study of intermittent inhalation of 160 ppm gNO in healthy adults; type: in vivo, human
Source text: 10 healthy adult volunteer subjects (5 males, 5 females), aged 20 to 62 years, were enrolled in the study after screening their medical history, a physical examination, pulmonary function tests and blood values. Exclusion criteria included individuals less than 19 years of age, pregnant females and unwilling to practice birth control during the study, diagnosed with pulmonary disease, epistaxis, hemoptysis, methemoglobinemia, organ transplant recipient or receiving antibiotic therapy.
After obtaining informed consent, treatment was initiated within 5 days of enrollment. Subjects were housed in a hospital ward and received 160 ppm gNO for 30 minutes every four hours (Q4 h), five times a day, for five consecutive days by inhalation. Subjects returned for follow-up evaluations 3, 7 and 21 days after the final gNO administration. Subject safety was determined by monitoring vital signs, methemoglobin levels, lung function, blood chemistry, hematology, prothrombin time, inflammatory cytokine/chemokines levels and endothelial activation. These parameters were compared to baseline and at various time-points during and after gNO administration.
Subjects were administered gNO through a modified disposable mouthpiece to maximize mixing. Inspiration was spontaneously initiated by the subject from a conventional intermittent positive pressure breathing respirator (Mark-7, Carefusion, USA) in fixed flow mode delivering 48 liters per minute (LPM). Flows of gas were verified with a calibrated mass flow meter (TSI, USA). Gaseous nitric oxide (gNO, obtained at INOmax, Ikaria, USA) at a concentration of 800 ppm delivered at a flow of 12 LPM was titrated into a distal delivery port on the mouth piece connected to the respirator during inspiratory phase only (pressure switch). The Mark 7 respirator was supplied by an air/oxygen blender (Bird Sentry, Carefusion, USA) set to deliver 26% oxygen.
The levels of gNO, NO2, O2 and methemoglobin were monitored during the administration of gNO. […] Inspiratory NO, NO2 and O2 levels were continuously monitored by sampling from the mouthpiece sample port located about 6 millimeters from the mouth of the subject with an AeroNOx (Pulmonox, AB, Canada) NO, NO2 and O2 electrochemical analyzer. Delivery safety was determined by the number of occasions that NO2 exceeded 5 ppm, gNO exceeding 10% variation and O2 dropping below 20% during gNO administration. […]
These parameters were measured continuously during every gNO administration course and for 3.5 hours after the first treatment of the day. Daily serum samples were collected and frozen at −80° C. and the serum […] level was measured using the Griess reagent.
Subjects underwent full pulmonary function tests (PFT), including lung diffusing capacity (DLCO) by a trained technician utilizing a calibrated pulmonary function system (Jaeger MasterScreen, VIASYS Healthcare, USA) on screening and days 2, 8, 12 and 26. […] Effect of gNO on lung function and DLCO was determined by changes from baseline, treatment days and follow up days.
General medical examinations were performed by a pulmonary physician on screening and on days 8, 12 and 26 to obtain oxygenation and vital sign measurements. […] Oxygenation was measured with a pulse oximeter (Rad 57, Masimo Corporation, USA) which was used according to manufacturer's guidelines to measure functional oxygen saturation of arterial hemoglobin (SpO2) and heart rate. […]

[2] = tested on: five planktonic species of methicillin resistant S. aureus (MRSA); conditions: 1,600 ppm hours of gNO; cited from earlier work
S. aureus = S. aureus on agar; 50-160 ppm gNO, vs medical air; cited from earlier work
[3] = tested on: bovine respiratory disease; conditions: cattle; intermittent 30 minute exposures of gNO; cited from earlier work
[4] = rats, cited from earlier work
P. aeruginosa = P. aeruginosa on agar; 50-160 ppm gNO, vs medical air; cited from earlier work
[5] = tested on: chronic, non-healing wound; conditions: topical 200 ppm gNO; within the first three days of treatment; cited from earlier work
[6] = healthy humans, cited from earlier work

[N]=O [gNO, nitric oxide]
accumulative effect on SpMet ([1]; after five daily treatments for five consecutive days): no accumulative or lingering effect on SpMet | DLCO, FVC, TLC and RV ([1]; during the course of the study): did not change from baseline measurement | airflow as measured by FEV1 and MMEF ([1]; during the course of the study): did not differ from baseline | Ang-2 and Ang-2/Ang-1 ratios ([1]; plasma): not affected | cytokine levels of TNF, IL-6, IL-8, IL-10, IL-1b and IL-12p70 ([1]; plasma, compared to baseline): unaffected | population of planktonic MRSA strains [2]: reduction in the population of all five MRSA planktonic strains | survival (bactericidal trend) (S. aureus): 5-10% | clinical symptoms of bovine respiratory disease [3]: decrease the clinical symptoms of bovine respiratory disease | mortality ([4]; groups of 10, 300 ppm gNO, 6 continuous hours per day): Six of the animals treated with 300 ppm gNO died during the first 1-2 days | MetHb levels ([4]; 400 ppm gNO): 72.5 percents | MetHb levels ([4]; 500 ppm gNO): 67 percents | survival (bactericidal trend) (P. aeruginosa): 5-10% | presence of biofilm in the wound [5]: no longer visibly present | levels of MetHb ([6]; inhalation of gNO at 128 ppm for 3 hours): > 5% | levels of MetHb ([6]; inhalation of gNO at 512 ppm for 55 minutes): > 5%
